From ChEMBL document CHEMBL1201862, “PubChem BioAssay data set” (2004)
The source made the active and inactive calls.

How the values were obtained:
Steroidogenic factor 1 = Steroidogenic factor 1 (Homo sapiens, UniProt Q13285); test: Counterscreen for inverse agonists of the liver receptor homolog-1 (LRH-1; NR5A2): Luminescence-based cell-based high throughput dose response assay to identify inverse agonists of the Steroidogenic Factor 1 Nuclear Receptor (SF1; NR5A1).; assay type: functional
[1] = biological target: Nuclear receptor subfamily 5 group A member 2 (Homo sapiens, UniProt O00482); assay type: functional, cell-based;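 further: HEK293T cells transfected with LRH-1 and a StAR promoter luciferase reporter; potency for inhibitors that lower LRH-1 driven reporter light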
Nuclear receptor subfamily 5 group A member 2, sequence (O00482 whole entry): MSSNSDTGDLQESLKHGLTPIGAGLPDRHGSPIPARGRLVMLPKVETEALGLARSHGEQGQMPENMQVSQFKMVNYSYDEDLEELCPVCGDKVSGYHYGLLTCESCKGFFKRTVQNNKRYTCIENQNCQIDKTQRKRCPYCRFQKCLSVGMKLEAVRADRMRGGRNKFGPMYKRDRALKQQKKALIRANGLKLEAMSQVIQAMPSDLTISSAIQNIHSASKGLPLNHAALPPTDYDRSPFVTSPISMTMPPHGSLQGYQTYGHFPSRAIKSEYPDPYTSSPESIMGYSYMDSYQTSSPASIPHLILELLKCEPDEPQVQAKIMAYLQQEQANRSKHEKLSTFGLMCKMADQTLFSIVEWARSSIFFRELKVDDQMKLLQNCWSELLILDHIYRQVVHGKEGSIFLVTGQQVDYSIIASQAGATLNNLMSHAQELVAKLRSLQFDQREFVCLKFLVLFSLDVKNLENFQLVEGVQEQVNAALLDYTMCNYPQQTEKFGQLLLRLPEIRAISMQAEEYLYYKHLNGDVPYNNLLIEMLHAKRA

[2] = nonselective StAR promoter luciferase inhibitors – cell-based, luminescence, luciferase reporter, counter-screen for LRH-1 inverse agonist project, dose response (AID 651969); assay type: functional
[3] = viability loss in HEK293T cells – cell-based, cherry-picks, cytotoxicity control for HIV Vif inhibitor project, dose response (AID 652208); assay type: functional
[4] = reduction of Shn3 3'UTR-driven luciferase in osteoblasts – cell-based, Clone20 osteoblasts, firefly luciferase, cherry-picked, dose response (AID 624132); assay type: functional;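 further: firefly luciferase luminescence from reporter carrying the Shn3 3'UTR in osteoblasts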
[5] = A549 cell cytotoxicity, dose response, cytotoxicity control, plate reader, cherry-pick, antagonist series (AID 743412); assay type: functional, cell-based
[6] = blockade of melanocortin 4 receptor signaling – cell-based, plate reader, cherry pick, counter-screen for LGR2 antagonist project, dose response (AID 743444); assay type: functional;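 further: transfected HEK 293 cells stimulated with alpha-MSH peptide; potency of inhibitors of the alpha-MSH evoked signal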
[7] = loss of viability in HepG2 cells – cell-based, CellTiter-Glo, cherry-picked, cytotoxicity control for Shn3 inhibitor project, dose response (AID 624134); assay type: functional
[8] = toxicity toward HepG2 liver cells – cell-based, plate reader, cherry-pick, antagonist series, cytotoxicity control, dose response (AID 743416); assay type: functional
[9] = blockers of bursicon-stimulated LGR2 cAMP reporter – cell-based, HEK293, CRE-luciferase reporter, cherry pick, set 2, dose response (AID 743343); assay type: functional;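 further: transfected cells were stimulated with diluted bursicon conditioned medium after compound addition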
[10] = non-specific 3'UTR reporter inhibition in Clone20-Shn3RL – cell-based, Renilla luciferase, cherry-picked, counter-screen for Shn3 inhibitor project, dose response (AID 624133); assay type: functional
[11] = viability loss in HEK293 cells – cell-based, plate reader, cherry-picked samples, cytotoxicity control, dose response (AID 743446); assay type: functional
[12] = biological target: T1, Rac GTPase-activating protein 1 (Homo sapiens, UniProt Q9H0H5); test: blockers of MgcRacGAP-driven Rac1 GTP hydrolysis – biochemical, ADP Hunter fluorescence, primary and confirmatory, confirmation (AID 624330); assay type: functional
T1 sequence (Q9H0H5 whole entry): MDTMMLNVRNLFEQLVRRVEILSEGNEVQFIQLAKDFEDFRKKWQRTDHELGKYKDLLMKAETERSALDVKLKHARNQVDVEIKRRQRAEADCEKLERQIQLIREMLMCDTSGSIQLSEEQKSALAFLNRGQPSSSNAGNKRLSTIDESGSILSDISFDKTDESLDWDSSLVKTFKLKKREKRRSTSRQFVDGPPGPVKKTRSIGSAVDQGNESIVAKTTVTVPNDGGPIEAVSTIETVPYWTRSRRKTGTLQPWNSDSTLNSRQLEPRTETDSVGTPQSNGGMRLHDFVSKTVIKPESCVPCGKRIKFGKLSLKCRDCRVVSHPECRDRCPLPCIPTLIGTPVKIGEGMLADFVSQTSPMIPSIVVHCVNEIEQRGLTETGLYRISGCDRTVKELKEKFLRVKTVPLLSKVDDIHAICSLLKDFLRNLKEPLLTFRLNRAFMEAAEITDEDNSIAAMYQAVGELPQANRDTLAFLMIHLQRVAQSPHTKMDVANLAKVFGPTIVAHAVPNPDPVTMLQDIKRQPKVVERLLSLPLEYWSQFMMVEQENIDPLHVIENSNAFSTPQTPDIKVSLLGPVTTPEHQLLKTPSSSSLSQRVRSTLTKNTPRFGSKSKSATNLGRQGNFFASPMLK

[13] = viability loss in HeLa cells – cytotoxicity control for MgcRacGAP inhibitor project, dose response (AID 624300); assay type: functional
[14] = NIH-3T3 fibroblast cytotoxicity, dose response, cytotoxicity control, cell-based, fluorescence, Alamar Blue, secondary assay (AID 2327); assay type: functional;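 further: NIH-3T3 mouse fibroblasts cultured with fluconazole at 8 µg/mL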
[15] = viability of HCT116 lacking mutant beta-catenin – cell-based, human colon tumor, dose response (AID 1045); assay type: functional;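 further: HCT116 colon tumor cells with beta catenin knocked out; cells exposed to compound for 60 hours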
[16] = viability of PTEN-deleted HCT116 cells – cell-based, HCT116 PTEN knockout, dose response (AID 1047); assay type: functional;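 further: HCT116 colon tumor cells with PTEN knocked out; cells exposed to compound for 60 hours before readout; potency for loss of cell viability measured by luminescence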
Cytochrome P450 2C9 = Cytochrome P450 2C9 (Homo sapiens, UniProt P11712)
Cytochrome P450 2C9, sequence (P11712 whole entry): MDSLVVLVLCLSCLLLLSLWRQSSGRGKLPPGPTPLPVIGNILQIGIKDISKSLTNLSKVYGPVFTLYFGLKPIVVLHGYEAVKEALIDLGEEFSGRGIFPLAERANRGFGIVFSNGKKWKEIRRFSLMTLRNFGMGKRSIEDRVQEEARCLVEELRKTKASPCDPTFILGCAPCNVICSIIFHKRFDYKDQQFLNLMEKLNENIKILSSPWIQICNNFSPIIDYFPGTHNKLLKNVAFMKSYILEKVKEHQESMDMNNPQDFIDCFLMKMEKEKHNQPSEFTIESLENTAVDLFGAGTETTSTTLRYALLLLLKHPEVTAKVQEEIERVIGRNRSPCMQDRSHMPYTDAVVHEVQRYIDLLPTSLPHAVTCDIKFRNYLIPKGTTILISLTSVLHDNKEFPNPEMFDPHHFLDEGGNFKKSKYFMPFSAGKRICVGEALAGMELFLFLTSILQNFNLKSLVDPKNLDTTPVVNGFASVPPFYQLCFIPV

[17] = fluconazole-exposed Candida albicans growth modulators – fluorescence, retest, confirmation (AID 2467); assay type: functional, cell-based
Cytochrome P450 3A4 = Cytochrome P450 3A4 (Homo sapiens, UniProt P08684);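 further: CYP3A4 tested as one member of a cytochrome P450 panel screen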
Cytochrome P450 3A4, sequence (P08684 whole entry): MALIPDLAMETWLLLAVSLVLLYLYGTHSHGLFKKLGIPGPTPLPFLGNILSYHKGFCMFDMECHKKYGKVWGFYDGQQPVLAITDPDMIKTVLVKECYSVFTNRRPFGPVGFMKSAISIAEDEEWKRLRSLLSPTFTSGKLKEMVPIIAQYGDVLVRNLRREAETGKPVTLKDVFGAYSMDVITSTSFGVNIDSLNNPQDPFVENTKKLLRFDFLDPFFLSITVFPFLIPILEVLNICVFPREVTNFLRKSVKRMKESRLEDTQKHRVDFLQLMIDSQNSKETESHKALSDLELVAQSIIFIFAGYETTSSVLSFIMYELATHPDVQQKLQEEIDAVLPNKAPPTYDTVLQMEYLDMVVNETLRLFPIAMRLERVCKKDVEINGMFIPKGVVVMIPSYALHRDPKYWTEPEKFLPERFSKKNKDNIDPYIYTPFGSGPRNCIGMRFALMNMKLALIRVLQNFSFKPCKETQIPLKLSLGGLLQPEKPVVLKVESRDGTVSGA

[18] = biological target: T2, Long-chain-fatty-acid--AMP ligase FadD28 (Mycobacterium tuberculosis, UniProt P9WQ59); test: Fluorescence polarization aasay to screen for inhibitors that compete for the binding of FadD28 to a bisubstrate Measured in Biochemical System Using Plate Reader - 2147-01_Inhibitor_Dose_CherryPick_Activity.; assay type: functional, Mycobacterium tuberculosis H37Rv
T2 sequence (P9WQ59 whole entry): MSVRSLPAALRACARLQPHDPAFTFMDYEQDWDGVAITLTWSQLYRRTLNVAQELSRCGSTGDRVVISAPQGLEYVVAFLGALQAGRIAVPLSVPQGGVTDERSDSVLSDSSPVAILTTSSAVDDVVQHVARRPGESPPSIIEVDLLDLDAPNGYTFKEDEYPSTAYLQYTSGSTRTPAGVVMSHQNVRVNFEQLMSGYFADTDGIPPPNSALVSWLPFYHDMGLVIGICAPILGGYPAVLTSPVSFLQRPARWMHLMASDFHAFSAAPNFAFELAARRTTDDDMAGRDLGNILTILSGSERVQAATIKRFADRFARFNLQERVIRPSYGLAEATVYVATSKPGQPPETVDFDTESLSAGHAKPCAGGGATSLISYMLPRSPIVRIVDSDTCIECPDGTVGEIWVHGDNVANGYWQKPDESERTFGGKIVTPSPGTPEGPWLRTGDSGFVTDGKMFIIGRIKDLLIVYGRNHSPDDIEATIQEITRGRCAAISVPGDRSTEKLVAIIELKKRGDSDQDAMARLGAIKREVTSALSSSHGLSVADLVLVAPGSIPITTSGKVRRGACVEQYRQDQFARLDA

[19] = biological target: T3, Corticotropin-releasing factor receptor 2/Corticotropin-releasing factor-binding protein (Homo sapiens, UniProt P24387+Q13324); test: Dose Response confirmation of uHTS hits for small molecule antagonists of the CRF-binding protein and CRF-R2 receptor complex.; assay type: functional; conditions: read-out: IC50_Mean
T3 sequence (Q13324 whole entry): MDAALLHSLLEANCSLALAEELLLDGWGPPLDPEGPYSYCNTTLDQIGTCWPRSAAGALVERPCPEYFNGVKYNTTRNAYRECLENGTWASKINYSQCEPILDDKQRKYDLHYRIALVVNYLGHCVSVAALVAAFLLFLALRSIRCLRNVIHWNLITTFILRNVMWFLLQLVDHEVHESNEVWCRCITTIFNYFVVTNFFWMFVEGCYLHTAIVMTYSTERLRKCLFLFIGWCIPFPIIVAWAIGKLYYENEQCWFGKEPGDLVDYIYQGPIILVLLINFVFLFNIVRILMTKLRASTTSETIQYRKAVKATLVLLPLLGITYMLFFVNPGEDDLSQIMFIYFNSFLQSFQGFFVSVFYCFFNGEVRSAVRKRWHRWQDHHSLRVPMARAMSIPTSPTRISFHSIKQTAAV
T3 sequence (P24387 whole entry): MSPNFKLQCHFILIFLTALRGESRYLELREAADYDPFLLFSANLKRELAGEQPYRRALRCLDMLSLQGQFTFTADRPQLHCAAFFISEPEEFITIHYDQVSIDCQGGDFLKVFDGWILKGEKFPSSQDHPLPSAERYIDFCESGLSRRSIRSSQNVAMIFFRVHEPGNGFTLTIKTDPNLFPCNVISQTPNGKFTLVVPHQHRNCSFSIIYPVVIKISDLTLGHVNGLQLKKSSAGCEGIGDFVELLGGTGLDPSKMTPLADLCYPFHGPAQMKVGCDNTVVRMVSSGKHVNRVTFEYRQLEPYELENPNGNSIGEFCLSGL

[20] = biological target: T3, Corticotropin-releasing factor receptor 2/Corticotropin-releasing factor-binding protein; test: activators of CRF receptor 2 with binding protein – uHTS hits, confirmation (AID 602473); assay type: functional; conditions: read-out: EC50_Mean
[21] = blockers of CRF-binding protein–CRF-R2 complex – cell-based, uHTS hits, 384-well, dose response (AID 651639); assay type: functional, Homo sapiens; conditions: read-out: IC50_Mean

Steroidogenic factor 1, sequence (Q13285 whole entry): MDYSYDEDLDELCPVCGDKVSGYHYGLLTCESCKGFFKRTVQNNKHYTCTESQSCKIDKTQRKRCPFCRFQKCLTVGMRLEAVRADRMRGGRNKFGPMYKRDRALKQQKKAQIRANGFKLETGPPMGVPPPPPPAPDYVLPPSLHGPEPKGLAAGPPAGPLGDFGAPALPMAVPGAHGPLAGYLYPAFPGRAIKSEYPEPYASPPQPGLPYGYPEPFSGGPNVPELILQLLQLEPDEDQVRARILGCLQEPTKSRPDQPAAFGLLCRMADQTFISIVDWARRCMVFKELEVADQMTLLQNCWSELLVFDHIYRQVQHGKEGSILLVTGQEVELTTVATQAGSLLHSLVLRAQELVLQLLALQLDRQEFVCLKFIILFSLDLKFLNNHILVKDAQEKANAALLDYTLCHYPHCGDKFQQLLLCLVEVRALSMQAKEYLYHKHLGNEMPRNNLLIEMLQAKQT

In the case of Cc1cc([N+](=O)[O-])ccc1NC(=O)CSc1nnc(C)n1C, the IC50 (Steroidogenic factor 1) is reported as 11.9 µM (inactive), the IC50 [1] is reported as 11.9 µM (inactive) and the IC50 [2] is reported as 35.8 µM (inactive).

With CCOC(=O)N1CCN(c2c(NCc3ccc(Cl)cc3)c(=O)c2=O)CC1 the AC50 [3] was > 52 µM (inactive).

For CC(C)c1ccc(NC(=O)Nc2nc(C(N)c3ccccc3)cs2)cc1 (stereo unspecified), the AC50 [4] was 2.48 µM (active), the AC50 [5] was 7.84 µM (active) and the AC50 [6] was 29 µM (active). The AC50 [7] was 13.5 µM (active), the AC50 [8] was 8.5 µM (active) and the AC50 [9] was 25.5 µM (active). The AC50 [10] was 15.4 µM (active) and the AC50 [11] was 16 µM (active).

For COc1cc(/C=N/Nc2nn3cnnc3c3ccccc23)ccc1O, the IC50 [12] was 64.2 µM (active) and the CC50 [13] was 100 µM (active).

For C[C@H](CO)N1C[C@H](C)[C@H](CN(C)Cc2ccc(C(F)(F)F)cc2)Oc2ccc(NC(=O)Nc3ccccc3)cc2C1=O, the AC50 [5] was 7.64 µM (active), the AC50 [6] was 20.2 µM (active) and the AC50 [8] was > 47 µM (inactive). For the same molecule, the AC50 [9] was 27.4 µM (active) and the AC50 [11] was > 47 µM (inactive).

For Cn1c(N/N=C/c2c[nH]c3ccccc23)nc2ccccc21, the EC50 [14] was > 150 µM (inactive), the EC50 [15] was 2.81 µM (active) and the EC50 [16] was 2.96 µM (active). The IC50 [12] was 44.4 µM (active), the AC50 (Cytochrome P450 2C9) was 28.2 µM (inconclusive) and the EC50 [17] was > 38 µM (not active). For the same molecule, the CC50 [13] was 100 µM (active), the AC50 (Cytochrome P450 3A4) was 20 µM (inconclusive) and the AC50 [18] was 52.1 µM (active).

With COC(=O)c1sc(-c2ccc(C(C)(C)C)cc2)cc1NC(=O)COCC(=O)O the IC50 [19] was 11 µM (active), the EC50 [20] was > 53 µM (inactive) and the IC50 [21] was > 20 µM (inactive).
